A short description of data set [1]: Assay (X) determination of effect on body weight in mice on high fat diet. The class given is in vivo, C57B16J mice. As to conditions: male C57 DIO mice, s.c., 0.3 μmol/kg once daily; FIG. 1. The text has this: Additional assays useful to the invention comprise those that can determine the effect of PP peptides on body weight and/or body composition. An exemplary assay is the following which involves utilization of a diet induced obese male […] mouse model for metabolic disease: […] (Taconic, Denmark) on regular diurnal rhythm and with access to a high fat diet (D12492, Research Diet, USA) are used. The mice are weighed on a weekly basis. Mice are received at age 5 weeks and put on high fat diet and housed at 24 degree Celsius in normal daily rhythm. Mice are group housed 10 per cage during an obesity induction period of 14 weeks. Two weeks before study start mice are single housed (two mice per cage with a dividing wall between). […] Body weight for all mice is recorded daily in combination with dosing. […] Data are analysed in Graph Pad Prism. Change of body weight from baseline in male C57 DIO mice (mean±SEM, n=10) after s.c. administration of compound AF (0.03 μmol/kg once daily or 0.1 μmol/kg every other day) or the reference compound human PP(2-36) (0.3 μmol/kg, once daily) was determined using Assay (X). […] Change of body weight (mean±SEM, n=10-12) and change of body weight from baseline (mean±SEM, n=10) in male […] mice on a high fat diet after administration of vehicle, compound BN (1 μmol/kg/day, s.c.) or reference compound 1 (500 nmol/kg/day, pump) was determined using Assay (X).

The conditions of data set [2]: minipig, in vivo; cited from earlier work.
The conditions of data set [3]: human, in vivo; cited from earlier work.
Data set [4] in a line: Assay (II) PK i.v. minipig, in vivo half-life. More on the design: species or system Göttingen mini-pigs. As to conditions: male, Göttingen, minipig, iv, Half-life minipig, Assay (II). Summed up:
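Male Göttingen mini-pigs (18–22 kg, n=5) received 6 nmol/kg i.v. via central catheter, formulated in 50 mM K2HPO4, 0.05% tween 80, pH 8.0. EDTA plasma sampled pre-dose to 240 h, quantified by TFC/LC/MS/MS (MRM, range 1-2000 nmol/l); half-life from non-compartmental analysis per animal.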

The text below walks through data of US20150141336A1, “Pancreatic Peptide Compounds and Use” (Novo Nordisk A/S, priority 2012, published 2015).

The structures appear in SMILES notation. Like-named read-outs stand apart in the source and are kept apart here. Numbered stars: 1 amine (or outer) side, 2 acyl side, 3 side chain; on linkers, the order of the positions; unused ones are H or OH. Side chains are listed from the residue outwards. Peptide text beside a SMILES is read from it. * marks the point of attachment. C18 diacid = O=C(O)CCCCCCCCCCCCCCCCC(=O)*; γGlu = O=C(O)[C@H](CCC(=O)[*:2])N[*:1]; AEEA = NCCOCCOCC(=O)O

As to `CC[C@H](C)[C@H](NC(=O)[C@H](Cc1ccc(O)cc1)NC(=O)[C@H](CCCNC(=N)N)NC(=O)[C@H](CCCNC(=N)N)NC(=O)[C@H](CC(C)C)NC(=O)[C@H](CC(=O)O)NC(=O)[C@H](C)NC(=O)[C@H](C)NC(=O)[C@H](Cc1ccc(O)cc1)NC(=O)[C@H](CCC(N)=O)NC(=O)[C@H](C)NC(=O)[C@H](CCSC)NC(=O)[C@H](CCC(N)=O)NC(=O)[C@H](CCC(=O)O)NC(=O)[C@@H]1CCCN1C(=O)[C@@H](NC(=O)[C@H](C)NC(=O)[C@H](CC(N)=O)NC(=O)[C@H](CC(=O)O)NC(=O)CNC(=O)[C@@H]1CCCN1C(=O)[C@H](Cc1ccc(O)cc1)NC(=O)[C@@H](NC(=O)[C@@H]1CCCN1C(=O)[C@H](CCC(=O)O)NC(=O)[C@H](CC(C)C)NC(=O)[C@@H]1CCCN1C(=O)[C@H](C)N)C(C)C)[C@@H](C)O)C(=O)N[C@@H](CC(N)=O)C(=O)N[C@@H](CCSC)C(=O)N[C@@H](CC(C)C)C(=O)N[C@H](C(=O)N[C@@H](CCCNC(=N)N)C(=O)N1CCC[C@H]1C(=O)N[C@@H](CCCNC(=N)N)C(=O)N[C@@H](Cc1ccc(O)cc1)C(N)=O)[C@@H](C)O` [PP(2-36)], in data set [1], the “Change of body weight from baseline” value is reported as “reduction in body weight”.

On to `CC[C@H](C)[C@H](NC(=O)[C@H](Cc1ccc(O)cc1)NC(=O)[C@H](CCCNC(=N)N)NC(=O)[C@H](CCCNC(=N)N)NC(=O)[C@H](CC(C)C)NC(=O)[C@H](CC(=O)O)NC(=O)[C@H](C)NC(=O)[C@H](C)NC(=O)[C@H](Cc1ccc(O)cc1)NC(=O)[C@H](CCC(N)=O)NC(=O)[C@H](C)NC(=O)[C@H](CCSC)NC(=O)[C@H](CCC(N)=O)NC(=O)[C@H](CCC(=O)O)NC(=O)[C@@H]1CCCN1C(=O)[C@@H](NC(=O)[C@H](C)NC(=O)[C@H](CC(N)=O)NC(=O)[C@H](CC(=O)O)NC(=O)CNC(=O)[C@@H]1CCCN1C(=O)[C@H](Cc1ccc(O)cc1)NC(=O)[C@@H](NC(=O)[C@@H]1CCCN1C(=O)[C@H](CCC(=O)O)NC(=O)[C@H](CC(C)C)NC(=O)[C@@H]1CCCN1C(=O)[C@H](C)N)C(C)C)[C@@H](C)O)C(=O)N[C@@H](CC(N)=O)C(=O)N[C@@H](CCSC)C(=O)N[C@@H](CC(C)C)C(=O)N[C@H](C(=O)N[C@@H](CCCNC(=N)N)C(=O)N1CCC[C@H]1C(=O)N[C@@H](CCCNC(=N)N)C(=O)N[C@@H](Cc1ccc(O)cc1)C(N)=O)[C@@H](C)O` [PP(3-36)], for which the half-life (commonly the time needed for the level to fall by half in the phase considered) in data set [2] is “less than 30 minutes”.

As to `CC[C@H](C)[C@H](NC(=O)[C@H](Cc1ccc(O)cc1)NC(=O)[C@H](CCCNC(=N)N)NC(=O)[C@H](CCCNC(=N)N)NC(=O)[C@H](CC(C)C)NC(=O)[C@H](CC(=O)O)NC(=O)[C@H](C)NC(=O)[C@H](C)NC(=O)[C@H](Cc1ccc(O)cc1)NC(=O)[C@H](CCC(N)=O)NC(=O)[C@H](C)NC(=O)[C@H](CCSC)NC(=O)[C@H](CCC(N)=O)NC(=O)[C@H](CCC(=O)O)NC(=O)[C@@H]1CCCN1C(=O)[C@@H](NC(=O)[C@H](C)NC(=O)[C@H](CC(N)=O)NC(=O)[C@H](CC(=O)O)NC(=O)CNC(=O)[C@@H]1CCCN1C(=O)[C@H](Cc1ccc(O)cc1)NC(=O)[C@@H](NC(=O)[C@@H]1CCCN1C(=O)[C@H](CCC(=O)O)NC(=O)[C@H](CC(C)C)NC(=O)[C@@H]1CCCN1C(=O)[C@H](C)N)C(C)C)[C@@H](C)O)C(=O)N[C@@H](CC(N)=O)C(=O)N[C@@H](CCSC)C(=O)N[C@@H](CC(C)C)C(=O)N[C@H](C(=O)N[C@@H](CCCNC(=N)N)C(=O)N1CCC[C@H]1C(=O)N[C@@H](CCCNC(=N)N)C(=O)N[C@@H](Cc1ccc(O)cc1)C(N)=O)[C@@H](C)O` [PP], the half-life entry in data set [3] is listed as “approximately 10 minutes”.

On to `CC[C@H](C)[C@H](NC(=O)[C@H](Cc1ccc(O)cc1)NC(=O)[C@H](CCCNC(=N)N)NC(=O)[C@H](CCCNC(=N)N)NC(=O)[C@H](CC(C)C)NC(=O)[C@H](CCCCNC(=O)COCCOCCNC(=O)COCCOCCNC(=O)CC[C@H](NC(=O)CCCCCCCCCCCCCCCCC(=O)O)C(=O)O)NC(=O)[C@H](C)NC(=O)[C@H](C)NC(=O)[C@H](Cc1ccc(O)cc1)NC(=O)[C@H](CCC(N)=O)NC(=O)[C@H](C)NC(=O)[C@H](CCSC)NC(=O)[C@H](CCC(N)=O)NC(=O)[C@H](CCC(=O)O)NC(=O)[C@@H]1CCCN1C(=O)[C@@H](NC(=O)[C@H](C)NC(=O)[C@H](CC(N)=O)NC(=O)[C@H](CC(=O)O)NC(=O)CNC(=O)[C@@H]1CCCN1C(=O)[C@H](Cc1ccc(O)cc1)NC(=O)[C@@H](NC(=O)[C@@H]1CCCN1C(=O)[C@H](CCC(=O)O)NC(=O)[C@@H](N)CC(C)C)C(C)C)[C@@H](C)O)C(=O)N[C@@H](CC(N)=O)C(=O)N[C@@H](CCSC)C(=O)N[C@@H](CC(C)C)C(=O)N[C@H](C(=O)N[C@@H](CCCNC(=N)N)C(=O)N1CCC[C@H]1C(=O)N[C@@H](CCCNC(=N)N)C(=O)N[C@@H](Cc1ccc(O)cc1)C(N)=O)[C@@H](C)O` [Compound AS] (H-LEPVYPGDNATPEQMAQYAAK([AEEA-AEEA-γGlu-C18 diacid])LRRYINMLTRPRY-NH2; N-terminus and C-terminus assumed), for which the half-life in data set [4] was 10 h.

Take `CC[C@H](C)[C@H](NC(=O)[C@H](Cc1ccc(O)cc1)NC(=O)[C@H](CCCNC(=N)N)NC(=O)[C@H](CCCNC(=N)N)NC(=O)[C@H](CC(C)C)NC(=O)[C@H](CC(=O)O)NC(=O)[C@H](C)NC(=O)[C@H](C)NC(=O)[C@H](Cc1ccc(O)cc1)NC(=O)[C@H](CCC(N)=O)NC(=O)[C@H](C)NC(=O)[C@H](CCSC)NC(=O)[C@H](CCC(N)=O)NC(=O)[C@H](CCC(=O)O)NC(=O)[C@H](CCCCNC(=O)COCCOCCNC(=O)COCCOCCNC(=O)CC[C@H](NC(=O)CCCCCCCCCCCCCCCCC(=O)O)C(=O)O)NC(=O)[C@@H](NC(=O)[C@H](C)NC(=O)[C@H](CC(N)=O)NC(=O)[C@H](CC(=O)O)NC(=O)CNC(=O)[C@@H]1CCCN1C(=O)[C@H](Cc1ccc(O)cc1)NC(=O)[C@@H](NC(=O)[C@@H]1CCCN1C(=O)[C@H](CCC(=O)O)NC(=O)[C@@H](N)CC(C)C)C(C)C)[C@@H](C)O)C(=O)N[C@@H](CC(N)=O)C(=O)N[C@@H](CCSC)C(=O)N[C@@H](CC(C)C)C(=O)N[C@H](C(=O)N[C@@H](CCCNC(=N)N)C(=O)N1CCC[C@H]1C(=O)N[C@@H](CCCNC(=N)N)C(=O)N[C@@H](Cc1ccc(O)cc1)C(N)=O)[C@@H](C)O` [Compound BB] (H-LEPVYPGDNATK([AEEA-AEEA-γGlu-C18 diacid])EQMAQYAADLRRYINMLTRPRY-NH2; N-terminus and C-terminus assumed): the half-life in data set [4] is 19 h.

In the case of `CC[C@H](C)[C@H](NC(=O)[C@H](Cc1ccc(O)cc1)NC(=O)[C@H](CCCNC(=N)N)NC(=O)[C@H](CCCNC(=N)N)NC(=O)[C@H](CC(C)C)NC(=O)[C@H](CC(=O)O)NC(=O)[C@H](C)NC(=O)[C@H](C)NC(=O)[C@H](Cc1ccc(O)cc1)NC(=O)[C@H](CCC(N)=O)NC(=O)[C@H](C)NC(=O)[C@H](CCSC)NC(=O)[C@H](CCC(N)=O)NC(=O)[C@H](CCC(=O)O)NC(=O)[C@@H]1CCCN1C(=O)[C@@H](NC(=O)[C@H](C)NC(=O)[C@H](CC(N)=O)NC(=O)[C@H](CC(=O)O)NC(=O)CNC(=O)[C@@H]1CCCN1C(=O)[C@H](Cc1ccc(O)cc1)NC(=O)[C@@H](NC(=O)[C@@H]1CCCN1C(=O)[C@H](CCCCNC(=O)COCCOCCNC(=O)COCCOCCNC(=O)CC[C@H](NC(=O)CCCCCCCCCCCCCCCCC(=O)O)C(=O)O)NC(=O)[C@@H](N)CC(C)C)C(C)C)[C@@H](C)O)C(=O)N[C@@H](CC(N)=O)C(=O)N[C@@H](CCSC)C(=O)N[C@@H](CC(C)C)C(=O)N[C@H](C(=O)N[C@@H](CCCNC(=N)N)C(=O)N1CCC[C@H]1C(=O)N[C@@H](CCCNC(=N)N)C(=O)N[C@@H](Cc1ccc(O)cc1)C(N)=O)[C@@H](C)O` [BL], the half-life in data set [4] was 52 h.
